These results are taken from patent publication US20250223301A1, “KINASE INHIBITORS, PREPARATION METHODS AND USES THEREOF” (InventisBio Co., Ltd., priority 2022, published 2025).

The subject of one test is Jurkat cells. Briefly: Jurkat IL-2 assay. Format: cell-based. The following applies: Homo sapiens, anti-CD3/CD28 stimulation overnight, IL-2 level. The procedure:
Jurkat cells (ATCC) were cultured in RPMI-1640 medium supplemented with 10% FBS. In a 96-well plate, −250,000 cells in 130 uL were added to each assay well. Ten microliter compound solution (5 uM to 2.3 nM, 8 points with 3-fold dilution) were added to cells in each well and incubated for 60 minutes at 37° C. Then 10 uL anti-CD3/CD28 antibody (Catalog #10991, Stemcell) were added and incubated overnight at 37° C. After the incubation, 16 uL supernatants were transferred into a new 384-well white assay plate for cytokine analysis. IL-2 was quantified using Human IL-2 kit (Catalog #62HIL02PEG, Cisbio) as described in the manufacturer manual.
(§1) X is log of compound concentration, Y is the IL-2 concentration, increasing as X increases.
In the case of `CCC(c1ccc(F)c(F)c1)N1C[C@H]2COc3c(c4nc(C#N)ccc4n(C)c3=O)N2C[C@H]1CC` (single isomer, unassigned) [Compound 183], the midpoint of the response, the EC50, lay at 77 nM.
On the same count and under the same terms, the value for `CC[C@H]1CN([C@@H](CC)c2nc(C(F)(F)F)no2)[C@H](CC)CN1c1nc2nncn2c2ccc(C#N)nc12` (stereo in doubt) [Compound 135] was 70 nM; that for `CC[C@H]1CN([C@@H](CC)c2ccc(C(F)(F)F)cc2C)[C@H](CC)CN1c1nc2nncn2c2ccc(C#N)nc12` (stereo in doubt) [Compound 137] was 248 nM.
Compound `CC[C@@H]1CN2c3c(c(=O)n(C4CCC4)c4ccc(C#N)nc34)OC[C@@H]2CN1[C@@H](CC)c1ccc(C(F)(F)F)cc1` (stereo in doubt) [Compound 263] showed an EC50 of 582 nM.
`C[C@H]1CC2(CCN1c1nc(=O)n(C)c3ccc(C#N)nc13)CC(c1ccc(OC(F)(F)F)cc1)=NO2` (some centres unmarked) [Compound 50] showed an EC50 of 435 nM.

The test system of another test is PBMC. The test can be described thus: Human PBMC IL-2 assay. It counts as cell-based. The following applies: anti-CD3/CD28 stimulation overnight, IL-2 level. Here is the method: PBMC (frozen) obtained from health donor were thawed in RPMI-1640 medium with 10% FBS and incubated for 4 h at 37° C. In a 96-well plate, −200,000 PBMC cells in 160 uL were added to each assay well. Ten microliter compound solution (10 uM to 0.6 nM, 8 points with 4-fold dilution) were added to cells in each well and incubated for 60 minutes at 37° C. Then 30 uL anti-CD3/CD28 antibody (Catalog #10991, Stemcell) were added to cells and incubated overnight at 37° C. After the incubation, 16 uL supernatants were transferred into a new 384-well white assay plate for cytokine analysis. IL-2 level was quantified using Human IL-2 kit (Catalog #62HIL02PEG, Cisbio) as described in the manufacturer manual.
as §1
`CCC(c1ccc(F)c(F)c1)N1C[C@H]2COc3c(c4nc(C#N)ccc4n(C)c3=O)N2C[C@H]1CC` (single isomer, unassigned) [Compound 183] showed an EC50 of 156 nM.
Same read-out and setting: the figure for `CC[C@H]1CN([C@@H](CC)c2nc(C(F)(F)F)no2)[C@H](CC)CN1c1nc2nncn2c2ccc(C#N)nc12` (stereo in doubt) [Compound 135] is 69 nM; for `CC[C@H]1CN([C@@H](CC)c2ccc(C(F)(F)F)cc2C)[C@H](CC)CN1c1nc2nncn2c2ccc(C#N)nc12` (stereo in doubt) [Compound 137] it is 96 nM; for `CCC[C@@H]1CN2c3c(c(=O)n(C)c4ccc(C#N)nc34)OC[C@@H]2CN1[C@@H](C)c1ccc(OCC2CC2)cc1F` (stereo in doubt) [Compound 163] it is 340 nM.
The same measure, in the same setting: the value for `CCC[C@@H]1CN2c3c(c(=O)n(C)c4ccc(C#N)nc34)OC[C@@H]2CN1[C@H](C)c1ccc(OCC2CC2)cc1F` (stereo in doubt) [Compound 164] was 233 nM; that for `CC[C@@H]1CN2c3c(c(=O)n(C)c4ccc(C#N)nc34)OC[C@@H]2CN1[C@H](CC)c1c(F)ccc(F)c1F` (stereo in doubt) [Compound 171] was 1250 nM.
As for `CC[C@H](c1ccc(C(F)(F)F)cc1)N1C[C@H]2COc3c(c4nc(C#N)ccc4n(C)c3=O)N2C[C@H]1C` (stereo in doubt) [Compound 178], it took 299 nM to reach a half-maximal effect (EC50).
The same measure, in the same setting: the value for `CC[C@@H]1CN2c3c(c(=O)n(C)c4ccc(C#N)nc34)OC[C@@H]2CN1[C@H](CC)c1ccc(F)c(F)c1` (stereo in doubt) [Compound 182] was 1880 nM.
Consider `CC[C@@H]1CN2c3c(c(=O)n(C)c4ccc(C#N)nc34)OC[C@@H]2CN1[C@H](CC)c1ccc(S(C)(=O)=O)cc1` (stereo in doubt) [Compound 185], for which the EC50 came out at 7230 nM.
On the same count and under the same terms, the value for `CC[C@@H]1CN2c3c(c(=O)n(C)c4ccc(C#N)nc34)OC[C@@H]2CN1[C@H](CC)c1ccc(C(F)(F)F)cn1` (stereo in doubt) [Compound 187] was 322 nM.
In turn, `CC[C@H]1CN([C@@H](CC)c2ccc(C3CC3)nc2)[C@H](CC)CN1c1nc2nncn2c2ccc(C#N)nc12` (stereo in doubt) [Compound 188] registered an EC50 of 577 nM.
The compound `CC[C@H]1CN([C@H](CC)c2ccc(C3CC3)nc2)[C@H](CC)CN1c1nc2nncn2c2ccc(C#N)nc12` (stereo in doubt) [Compound 189] showed an EC50 of 276 nM.
For the compound `CC[C@H](c1ccc(F)c(Cl)c1)N1C[C@H]2COc3c(c4nc(C#N)ccc4n(C)c3=O)N2C[C@H]1C` (stereo in doubt) [Compound 237], the EC50 was 1330 nM.
Still for that read-out and setting: the value for `C[C@@H]1CN2c3c(c(=O)n(C)c4ccc(C#N)nc34)OC[C@@H]2CN1[C@@H](C)c1ccc(Cl)cc1Cl` (stereo in doubt) [Compound 268] was 890 nM.
The same measure, in the same setting: the figure for `Cc1ccc2oc(C3(C)CCN(c4c(C#N)c(=O)n(C)c5ccc(C#N)nc45)CC3)nc2c1` [Compound 7] is 372 nM.
Compound `CC[C@@H]1CN2c3c(c(=O)n(C)c4ccc(C#N)nc34)OC[C@@H]2CN1c1nc2cc(C)ccc2o1` [Compound 165] returned a concentration for a half-maximal effect (EC50) of 375 nM.
`CC[C@H]1CN2[C@@H](COC[C@@H]2c2ccc(C(F)(F)F)cc2)CN1c1nc2nncn2c2ccc(C#N)nc12` [Compound 192] yielded an EC50 of 3050 nM.
On the same count and under the same terms, the value for `CC[C@@H]1CN2c3c(c(=O)n(C)c4ccc(C#N)nc34)N(C)C[C@@H]2CN1[C@H](CC)c1ccc(C(F)(F)F)cc1` [Compound 220] was 3840 nM.
